Reference: patent US7951997B2, “Reversible male sterility in transgenic plants by expression of cytokinin oxidase” (Monsanto Technology LLC, priority 2001, dated 2011)

Test system: male-sterile F1 transgenic plants (CKX1)
Assay: Fertility restoration: tassel fertility rating after TDZ and kinetin applications
Type: in vivo, corn
Design: key: 0: No or very little floral development; x: Advanced floral development observed in some areas of tassels; xx: Increased areas of advanced floral development and anthersis observed in some flowers
Conditions: 0.25% Sylgard 309
Method: Two commercially registered chemicals were tested in fertility restoration experiments. Kinetin is a synthetic cytokinin that is not oxidized by CKX1 and TDZ is a known cytokinin oxidase inhibitor. The F1 seeds from the crosses between wild-type plants and several male-sterile R0 events were planted. NPTII ELISA positive plants were identified as the male-sterile transgenic plants among F1 segregating populations by enzyme-linked immunosorbent assays (ELISA, Example 3) performed on leaf samples collected at the seedling stage of all plants. Identified plants were treated at the V4, V7 and V10 stages. The application rates for each plant were 0, 10, 20, 30, and 100 mg of kinetin with or without 3 mg of TDZ in the presence of 0.25% of Sylgard 309 surfactant (Willbur-Ellis, Fresno, Calif.). One to three plants were tested at a particular rate combination.
The NPTII ELISA tests were thus used to select male sterile F1 transgenic plants for chemical treatments. […] These chemical application conditions were not sufficient to produce fully fertile plants. The degree of floral development restoration varied and was limited to older tissues of the tassel. […] Table 3 details tassel fertility rating of the restoration study.
Two to three transgenic F1 plants were used in each treatment group. Plants were either treated repeatedly in three different rates at three V4, V7 and V10 developmental stages or once in a higher rate at V7 developmental stage. Rates are indicated by mg/plant of TDZ and kinetin, respectively, in the presence of 0.25% of Sylgard 309 surfactant. The fertility rating was based on the visual observation. 0, No or very little floral development; x, Advanced floral development observed in some areas of tassels; xx, Increased areas of advanced floral development and anthersis observed in some flowers.

Measured: tassel fertility rating

c1coc(CNc2ncnc3[nH]cnc23)c1 [kinetin]
0: line 16400, TDZ 0, kinetin 20 mg/plant, applications at V4 + V7 + V10 | line 16400, TDZ 0, kinetin 100 mg/plant, application at V7 | line 16409, TDZ 0, kinetin 20 mg/plant, applications at V4 + V7 + V10 | line 16409, TDZ 0, kinetin 100 mg/plant, application at V7 | line 16802, TDZ 0, kinetin 20 mg/plant, applications at V4 + V7 + V10 | line 16802, TDZ 0, kinetin 100 mg/plant, application at V7 | line 16825, TDZ 0, kinetin 20 mg/plant, applications at V4 + V7 + V10 | line 16825, TDZ 0, kinetin 100 mg/plant, application at V7 | line 16832, TDZ 0, kinetin 20 mg/plant, applications at V4 + V7 + V10 | line 16832, TDZ 0, kinetin 100 mg/plant, application at V7
